Test: Water solubility confirmation (organic material content quantified by Karl Fisher method)
Format: physicochemical
Protocol: According to the composition shown in Tables 38 to 61, the water-soluble antioxidant emulsion was added to the natural polyphenol compound emulsion, and then mixing and dispersing were performed at 500 rpm or less while checking the properties of the emulsion to prepare an natural polyphenol compound-containing water-soluble emulsion composition containing a water-soluble antioxidant emulsion. […] After 1 hour of centrifugation and filtering, an organic material content was quantified by measuring a water content using a Karl Fisher method.

SMILES | Water solubility [%]
O=c1cc(-c2ccccc2)oc2cc(O)c(O)c(O)c12 [Generic Powdered Baicalein] | 0.00
COc1cc(/C=C/C(=O)CC(=O)/C=C/c2ccc(O)c(OC)c2)ccc1O [Generic Powdered Curcumin] | 0.00
O=c1cc(-c2ccc(O)c(O)c2)oc2cc(O)cc(O)c12 [Generic Powdered Luteolin] | 0.02
O=C1C[C@@H](c2ccc(O)cc2)Oc2cc(O)cc(O)c21 [Generic Powdered Naringenin] | 0.04
Oc1ccc(/C=C/c2cc(O)cc(O)c2)cc1 [Generic Powdered Resveratrol] | 0.00

The next lines start with the values.

Water solubility [%] | SMILES
0.01 | O=c1c(O)c(-c2ccc(O)cc2)oc2cc(O)cc(O)c12 [Generic Powdered kaempferol]
0.00 | COc1ccc([C@@H]2CC(=O)c3c(O)cc(O[C@@H]4O[C@H](CO[C@@H]5O[C@@H](C)[C@H](O)[C@@H](O)[C@H]5O)[C@@H](O)[C@H](O)[C@H]4O)cc3O2)cc1O [Generic powdered Hesperidin]
0.00 | O=c1c(O)c(-c2ccc(O)c(O)c2)oc2cc(O)cc(O)c12 [Generic powdered Quercetin]
